Laboratory results published in PubChem BioAssay (NCI).
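Grown in 96-well plates, cells were treated for 48 hours with each compound at five concentrations. Insufficient inhibition: endpoint recorded as highest concentration tested. GI50 is the concentration that inhibits growth by half. TGI marks complete inhibition of growth.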

Experiments:
Assay in all cases: NCI anticancer screen, dose series, 48 h
HL-60(TB) leukemia = test system: HL-60(TB) leukemia
SK-MEL-2 melanoma = test system: SK-MEL-2 melanoma
HOP-62 NSCLC = test system: HOP-62 NSCLC
HCC-2998 colon = test system: HCC-2998 colon
SNB-75 CNS = test system: SNB-75 CNS
NCI-H522 lung = test system: NCI-H522 lung
CAKI-1 renal = test system: CAKI-1 renal
SF-268 CNS = test system: SF-268 CNS
SNB-19 CNS = test system: SNB-19 CNS
NCI-H226 lung = test system: NCI-H226 lung

Compound	GI50 (HL-60(TB) leukemia)	TGI (HL-60(TB) leukemia)	GI50 (SK-MEL-2 melanoma)	TGI (SK-MEL-2 melanoma)	GI50 (HOP-62 NSCLC)	TGI (HOP-62 NSCLC)	GI50 (HCC-2998 colon)	TGI (HCC-2998 colon)	GI50 (SNB-75 CNS)	TGI (SNB-75 CNS)	GI50 (NCI-H522 lung)	TGI (NCI-H522 lung)	GI50 (CAKI-1 renal)	TGI (CAKI-1 renal)	GI50 (SF-268 CNS)	TGI (SF-268 CNS)	GI50 (SNB-19 CNS)	TGI (SNB-19 CNS)	GI50 (NCI-H226 lung)	TGI (NCI-H226 lung)
C=C1C(=O)O[C@H]2C[C@@H]1CC/C(C)=C/CC/C(C)=C/CC[C@H]2C	7.14 µM	16.2 µM	30.9 µM	> 61.9 µM	12.5 µM	27.1 µM	14.5 µM	28.9 µM	19.4 µM	35.2 µM	23.5 µM	> 66.3 µM	17 µM	33.6 µM	19.3 µM	46.1 µM	23.2 µM	55.2 µM		
[Cl][Hg][Cl]	3.24 µM	10.1 µM	16.2 µM	34.5 µM	16.7 µM	31.3 µM	17.5 µM	31.7 µM	18 µM	34.8 µM			13.7 µM	18.1 µM	18.1 µM	46.9 µM	17.9 µM	32 µM	25.1 µM	47.7 µM
COc1ccc2c(CN3CCCCC3CO)cc3cc(OC)c(OC)cc3c2c1 (stereo unspecified)		12.5 µM		17.8 µM		20.7 µM		21 µM		22.1 µM		7.72 µM				20.1 µM		16.5 µM		16.7 µM
COc1ccc(OC)c2c1CC(C(=O)O)(C(=O)O)CC2=O		> 100 µM		> 100 µM		> 100 µM		> 100 µM		> 100 µM				> 100 µM		> 100 µM		> 100 µM		> 100 µM
O=c1nc(/C=C/c2ccccc2Cl)cc2n1CCN2CCO		> 100 µM		> 100 µM		> 100 µM				> 100 µM		47.4 µM		> 100 µM		> 100 µM				> 100 µM
Cc1[nH]c2ccccc2c1C(=O)CC1(O)C(=O)Nc2ccccc21 (stereo unspecified)		> 100 µM		> 100 µM		> 100 µM		> 100 µM		> 100 µM				> 100 µM		> 100 µM		> 100 µM		> 100 µM
COC(=O)[C@@H](C)C[C@H](Cc1ccccc1)NC(=O)c1csc(CC[C@H](C(C)C)N(C)C(=O)[C@@H](NC(=O)[C@H]2CCCCN2C)C(C)C)n1	0.0799 µM	0.298 µM	0.149 µM	> 33.3 µM	0.536 µM	> 33.3 µM	0.562 µM	> 33.3 µM	0.222 µM	9.2 µM	0.0656 µM	0.301 µM			0.722 µM	> 33.3 µM	0.168 µM	> 33.3 µM	0.856 µM	> 23.9 µM
CC(=O)[CH-]C(C)=O.CC(=O)[CH-]C(C)=O.[CH2-]CCC.[CH2-]CCC.[Sn+4]	0.347 µM	2.73 µM	0.309 µM	1.22 µM	2.02 µM	3.56 µM			0.509 µM	1.79 µM	0.0586 µM	0.122 µM	0.151 µM	0.874 µM	0.291 µM	1.2 µM	0.663 µM	1.97 µM	1.77 µM	3.45 µM
CN(C)CC(C)(C)/C(=N\Nc1ccccc1)c1ccccc1		50.6 µM		> 100 µM		> 100 µM				> 100 µM		> 100 µM				> 100 µM		> 100 µM		
CCc1cccc(C)c1NC(=O)c1sc2nc3c(cc2c1N)CCCCC3	2.85 µM	11.8 µM	3.27 µM	> 100 µM	4.34 µM	> 100 µM	12.4 µM	85.8 µM	1.79 µM	51.5 µM	2.78 µM	41.9 µM			7.69 µM	> 100 µM	4.07 µM	> 100 µM	14.5 µM	> 100 µM
c1cc(N(CCn2cccn2)CCn2cccn2)cc(N(CCn2cccn2)CCn2cccn2)c1		> 100 µM		> 100 µM		> 100 µM		> 100 µM		> 100 µM		> 100 µM		> 100 µM		> 100 µM		> 100 µM		
FC(F)(F)c1nc2nc(Cl)c(Cl)nc2n1CCCN1CCOCC1		40.3 µM		> 100 µM		> 100 µM				> 100 µM		> 100 µM		14.7 µM		> 100 µM		> 100 µM		> 100 µM
O=C1c2ccccc2C(Br)(Br)c2ccccc21		> 31.6 µM		> 31.6 µM				> 31.6 µM		> 31.6 µM		> 31.6 µM				> 31.6 µM		> 31.6 µM		> 31.6 µM
COc1ccc(OC)c(/C(C)=N/NC(N)=S)c1		> 100 µM		> 100 µM		> 100 µM		> 100 µM		> 100 µM				> 100 µM		> 100 µM				> 100 µM
C[N-]c1nnnn1C.[Au+].c1ccc([PH+](c2ccccc2)c2ccccc2)cc1	0.189 µM	0.567 µM	1.66 µM	3.78 µM	7.89 µM	16.8 µM	4.06 µM	9.23 µM	4.75 µM	11 µM			2.39 µM	5 µM	3.5 µM	15.4 µM	2.25 µM	6.18 µM	4.98 µM	14 µM
Cc1sc2nc(-c3ccncc3)c(/C=N/N=C(N)N)n2c1C	21.7 µM	> 100 µM			33.9 µM	> 100 µM			89.8 µM	> 100 µM			40.8 µM	> 100 µM	25.7 µM	90.1 µM	36.3 µM	> 100 µM	26.8 µM	84.6 µM
COc1ccc(S(=O)(=O)N2CC(C)(C)CN(S(=O)(=O)c3ccc(OC)cc3)C2C(=O)NO)cc1	> 10.6 µM	> 20 µM	> 20 µM	> 20 µM	> 20 µM	> 20 µM			> 20 µM	> 20 µM	> 20 µM	> 20 µM	> 14.1 µM	> 20 µM	> 20 µM	> 20 µM	> 20 µM	> 20 µM	> 17.1 µM	> 20 µM
